{"source": "patent US20040176442A1", "about": "“Potassium taurate bicarbonate and ascorbate” (priority 2003, published 2004)", "test_system": "Dahl salt-sensitive rats", "assay": "Systolic blood pressure of Dahl salt-sensitive rats on high salt diet, PTB in drinking water (tail-cuff plethysmography)", "assay_type": "in vivo, rat", "conditions": "for Average systolic blood pressure: 13.5 grams/liter PTB in drinking water", "method": "An experimental study was undertaken to assess the effect on blood pressure of oral PTB given in drinking water to Dahl salt-sensitive rats, which are known to experience an increase in blood pressure upon administration of salt. In this study, salt was administered in the diet to two groups of rats, a placebo group that received salt but not PTB and an active group that received both salt and PTB in drinking water.\nThe study was conducted as follows: Twenty-four Dahl salt-sensitive male rats were fed regular rat chow containing 0.24% (w/w) sodium chloride for an acclimatization period. The rats were then switched to a high salt diet (4% NaCl and 1.5% KCl) and were randomly divided into two groups of twelve rats each—an active group supplied with drinking water containing 13.5 grams/liter PTB (prepared as described in Example 2, and a placebo group receiving ordinary drinking water. Food and water were available ad libitum to both groups over the 28-day course of the study. The systolic blood pressure of each rat was determined twice a week over the course of the study by the tail-cuff plethysmography method. Each recorded blood pressure was the average of 3-5 individual readings.\nSystolic blood pressure rose progressively after high-salt intake in the placebo group, reaching 172±4 mm Hg at day 28.", "note": "Where “and” joins values, the source holds several entries; their conditions need not be identical. Identical values can stand only once.", "data": [{"smiles": "NCCS(=O)(=O)O.O=C([O-])O.[K+]", "note": "[PTB, potassium taurate bicarbonate]", "values": [{"measurement": "Blunting of the expected rise in systolic blood pressure (active vs placebo group)", "setting": "by the end of the 28-day study, PTB in drinking water, high salt diet", "value": 21, "unit": "mm Hg"}, {"measurement": "Average systolic blood pressure", "setting": "day 3 after administration, high salt diet (4% NaCl and 1.5% KCl)", "value": 114, "unit": "mm Hg"}, {"measurement": "Average systolic blood pressure", "setting": "day 7 after administration, high salt diet", "value": 126, "unit": "mm Hg"}, {"measurement": "Average systolic blood pressure", "setting": "day 10 after administration, high salt diet", "value": 133, "unit": "mm Hg"}, {"measurement": "Average systolic blood pressure", "setting": "day 14 after administration, high salt diet", "value": 134, "unit": "mm Hg"}, {"measurement": "Average systolic blood pressure", "setting": "day 17 after administration, high salt diet", "value": "138±2 mm Hg and 138 mm Hg"}, {"measurement": "Average systolic blood pressure", "setting": "day 21 after administration, high salt diet", "value": 150, "unit": "mm Hg"}, {"measurement": "Average systolic blood pressure", "setting": "day 24 after administration, high salt diet", "value": "143±3 mm Hg and 143 mm Hg"}, {"measurement": "Average systolic blood pressure", "setting": "day 28 after administration, high salt diet", "value": "151±3 mm Hg and 151 mm Hg"}]}]}
